Results: PMC1431542, “Cyclic nucleotide specific phosphodiesterases of Leishmania major” (BMC Microbiology, 2006)

How the values were obtained:
LmjPDEB1 = target: T1, LmjPDEB1 (Leishmania major, UniProt Q6S996); assay: 3H-cAMP phosphodiesterase assay in yeast lysate; assay type: cell-based
T1 construct: gene PDEB1; full-length, hemagglutinin-tagged
T1 sequence (Q6S996 1-940): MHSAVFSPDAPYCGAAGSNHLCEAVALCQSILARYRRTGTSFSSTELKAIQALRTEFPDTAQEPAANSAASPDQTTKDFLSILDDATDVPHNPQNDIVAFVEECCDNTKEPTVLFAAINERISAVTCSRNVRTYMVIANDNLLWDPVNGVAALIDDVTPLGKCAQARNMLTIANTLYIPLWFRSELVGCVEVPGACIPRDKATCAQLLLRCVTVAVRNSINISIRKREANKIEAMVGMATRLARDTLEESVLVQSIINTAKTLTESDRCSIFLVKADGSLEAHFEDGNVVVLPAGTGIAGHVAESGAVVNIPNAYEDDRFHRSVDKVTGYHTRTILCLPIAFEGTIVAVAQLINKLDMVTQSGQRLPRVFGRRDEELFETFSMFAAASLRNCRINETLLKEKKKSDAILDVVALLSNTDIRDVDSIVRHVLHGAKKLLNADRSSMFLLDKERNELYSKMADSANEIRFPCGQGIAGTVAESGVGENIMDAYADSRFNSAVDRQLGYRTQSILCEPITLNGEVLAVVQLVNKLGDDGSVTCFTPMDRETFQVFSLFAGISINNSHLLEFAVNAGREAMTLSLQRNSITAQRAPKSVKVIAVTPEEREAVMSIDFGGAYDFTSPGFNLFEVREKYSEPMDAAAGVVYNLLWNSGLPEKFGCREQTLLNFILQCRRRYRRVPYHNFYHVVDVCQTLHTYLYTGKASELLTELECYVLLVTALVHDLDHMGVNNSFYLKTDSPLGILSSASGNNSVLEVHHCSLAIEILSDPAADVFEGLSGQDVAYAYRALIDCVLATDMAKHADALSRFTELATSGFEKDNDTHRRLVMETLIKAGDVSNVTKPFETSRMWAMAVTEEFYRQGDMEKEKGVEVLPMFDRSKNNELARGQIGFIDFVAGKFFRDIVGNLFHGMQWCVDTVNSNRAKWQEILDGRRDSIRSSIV

LmjPDEB2 = target: T2, LmjPDEB2 (Leishmania major, UniProt Q6S997); assay: biochemical
T2 construct: gene PDEB2; full-length, hemagglutinin-tagged
T2 sequence (Q6S997 entry or part of it): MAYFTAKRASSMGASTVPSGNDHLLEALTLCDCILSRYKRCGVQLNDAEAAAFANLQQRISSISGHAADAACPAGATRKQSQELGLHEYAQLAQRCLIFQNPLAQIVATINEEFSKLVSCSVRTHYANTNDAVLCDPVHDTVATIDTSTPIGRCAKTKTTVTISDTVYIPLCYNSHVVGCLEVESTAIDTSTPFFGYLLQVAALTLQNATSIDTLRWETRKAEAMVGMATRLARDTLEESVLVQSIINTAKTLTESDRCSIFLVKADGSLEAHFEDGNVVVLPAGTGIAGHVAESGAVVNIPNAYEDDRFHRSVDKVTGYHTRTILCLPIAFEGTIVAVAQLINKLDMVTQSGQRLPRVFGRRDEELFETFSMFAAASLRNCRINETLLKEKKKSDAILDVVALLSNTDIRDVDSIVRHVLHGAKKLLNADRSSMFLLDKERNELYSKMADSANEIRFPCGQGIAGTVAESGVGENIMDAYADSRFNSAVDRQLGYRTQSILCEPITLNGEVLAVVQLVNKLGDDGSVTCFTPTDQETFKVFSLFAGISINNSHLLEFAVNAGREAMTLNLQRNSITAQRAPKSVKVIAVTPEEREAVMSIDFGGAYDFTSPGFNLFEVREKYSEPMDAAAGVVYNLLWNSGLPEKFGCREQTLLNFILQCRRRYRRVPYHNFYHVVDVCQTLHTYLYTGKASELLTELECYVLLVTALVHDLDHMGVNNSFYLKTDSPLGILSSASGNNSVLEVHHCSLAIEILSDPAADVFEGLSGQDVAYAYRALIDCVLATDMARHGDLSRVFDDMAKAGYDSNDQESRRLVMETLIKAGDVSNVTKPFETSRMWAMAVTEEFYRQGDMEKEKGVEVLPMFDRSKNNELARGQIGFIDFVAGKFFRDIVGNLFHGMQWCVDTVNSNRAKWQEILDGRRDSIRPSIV

## CCOC(=O)c1cnc2c(cnn2CC)c1NN=C(C)C [compound 3, etazolate]
LmjPDEB1
  3H-cAMP phosphodiesterase assay in yeast lysate: Only dipyridamole, trequinsin and etazolate exhibited at least a moderate potency.

## OCCN(CCO)c1nc(N2CCCCC2)c2nc(N(CCO)CCO)nc(N3CCCCC3)c2n1 [compound 4, dipyridamole]
LmjPDEB2
  IC50: 29 µM
LmjPDEB1
  3H-cAMP phosphodiesterase assay in yeast lysate: Only dipyridamole, trequinsin and etazolate exhibited at least a moderate potency.

## COc1cc2c(cc1OC)-c1c/c(=N\c3c(C)cc(C)cc3C)n(C)c(=O)n1CC2 [compound 9, trequinsin]
LmjPDEB2
  IC50: 96 µM
LmjPDEB1
  3H-cAMP phosphodiesterase assay in yeast lysate: Only dipyridamole, trequinsin and etazolate exhibited at least a moderate potency.
